Structures are written as SMILES.

Our source for the IC50 values is BindingDB's records for doi:10.1016/0960-894X(96)00221-1 (1996).

A short description of the test: Compound was evaluated for inhibition of tyrosinase enzyme.
The compound `CC[C@H](C)[C@H](NC(=O)OCc1cc(=O)c(O)co1)C(=O)O` returned an IC50 of 15.3 µM.

Compound `CC[C@H](C)[C@H](NC(=O)OCc1cc(=O)c(O)co1)C(=O)OCc1cc(=O)c(O)co1` returned a concentration for half-maximal inhibition (IC50) of 0.7 µM.

For the compound `CC(C)[C@H](NC(=O)OCc1cc(=O)c(O)co1)C(=O)OCc1cc(=O)c(O)co1` [(S)-2-(5-Hydroxy-4-oxo-4H-pyran-2-ylmethoxycarbonylamino)-3-methyl-butyric acid 5-hydroxy-4-oxo-4H-pyran-2-ylmethyl ester], 2.39 µM corresponded to half-maximal inhibition (IC50).

As to `CC(C)[C@H](NC(=O)OCc1cc(=O)c(O)co1)C(=O)O` [(S)-2-(5-Hydroxy-4-oxo-4H-pyran-2-ylmethoxycarbonylamino)-3-methyl-butyric acid], the IC50 turned out to be 16.7 µM.

The compound `O=C(N[C@@H](Cc1ccccc1)C(=O)OCc1cc(=O)c(O)co1)OCc1cc(=O)c(O)co1` [(S)-2-(5-Hydroxy-4-oxo-4H-pyran-2-ylmethoxycarbonylamino)-3-phenyl-propionic acid 5-hydroxy-4-oxo-4H-pyran-2-ylmethyl ester] displayed an IC50 of 0.06 µM.

With `O=C(N[C@@H](Cc1ccccc1)C(=O)O)OCc1cc(=O)c(O)co1` [(S)-2-(5-Hydroxy-4-oxo-4H-pyran-2-ylmethoxycarbonylamino)-3-phenyl-propionic acid], the IC50 was found to be 8 µM.

The compound `CC(C)C[C@H](NC(=O)OCc1cc(=O)c(O)co1)C(=O)OCc1cc(=O)c(O)co1` [(S)-2-(5-Hydroxy-4-oxo-4H-pyran-2-ylmethoxycarbonylamino)-4-methyl-pentanoic acid 5-hydroxy-4-oxo-4H-pyran-2-ylmethyl ester] yielded an IC50 of 2 µM.

`CC(C)C[C@H](NC(=O)OCc1cc(=O)c(O)co1)C(=O)O` [(S)-2-(5-Hydroxy-4-oxo-4H-pyran-2-ylmethoxycarbonylamino)-4-methyl-pentanoic acid] returned an IC50 of 14.5 µM.

`C[C@H](NC(=O)OCc1cc(=O)c(O)co1)C(=O)OCc1cc(=O)c(O)co1` [(S)-2-(5-Hydroxy-4-oxo-4H-pyran-2-ylmethoxycarbonylamino)-propionic acid 5-hydroxy-4-oxo-4H-pyran-2-ylmethyl ester] had a half-maximal inhibitory concentration (IC50) of 3.03 µM.

Consider `C[C@H](NC(=O)OCc1cc(=O)c(O)co1)C(=O)O` [(S)-2-(5-Hydroxy-4-oxo-4H-pyran-2-ylmethoxycarbonylamino)-propionic acid], for which the IC50 was 23.2 µM.

A word on the IC50: it is the concentration that inhibits the measured activity by half. Lower therefore signals greater potency in that assay.
